Data on 14 compounds can be found in ChEMBL document CHEMBL4229414, “Design and synthesis of bridged piperidine and piperazine isosteres” (Bioorg Med Chem Lett, 2018).

In series [1] the target is D(2) dopamine receptor (Homo sapiens) (UniProt P14416). The experiment in a line: Agonist activity at human D2L receptor expressed in CHOK1 cells assessed as inhibition of receptor response at 0.1 uM by calcium flux assay relative to control. Type of series: functional, cell-based. (In general: Calcium assays in cells follow changes in intracellular calcium, usually with a dye or a luminescent sensor.)

Series [2] shares this target. Put plainly: Agonist activity at human D2L receptor expressed in CHOK1 cells assessed as inhibition of receptor response at 10 uM by calcium flux assay relative to control. Type of series: functional, cell-based.
Series [3] has the same target. The experiment in a line: Antagonist activity at human D2L receptor expressed in CHOK1 cells assessed as inhibition of dopamine-induced calcium flux at 0.1 uM by fluorescence assay relative to control. Type of series: functional, cell-based.
Series [4] has the same target. The experiment in a line: Antagonist activity at human D2L receptor expressed in CHOK1 cells assessed as inhibition of dopamine-induced calcium flux at 10 uM by fluorescence assay relative to control. Type of series: functional, cell-based.
Series [5] is filed under the species Homo sapiens. Put plainly: Agonist activity at recombinant human D4.4 expressed in CHOK1 cells assessed as inhibition of receptor response at 0.1 uM by HTRF based cAMP assay relative to control. Type of series: cell-based. (TR-FRET usually uses a lanthanide donor and a delayed reading to cut background.)
The species named for series [6] is Homo sapiens. Put plainly: Agonist activity at recombinant human D4.4 expressed in CHOK1 cells assessed as inhibition of receptor response at 10 uM by HTRF based cAMP assay relative to control. Type of series: cell-based.
The target of series [7] is T1, hERG (KCNH2) (Homo sapiens, UniProt Q12809). The experiment in a line: Inhibition of human ERG at 1 uM relative to control.
Series [8] has as its target T1, hERG (KCNH2). Put plainly: Inhibition of human ERG at 3 uM relative to control.
Series [9] addresses T1, hERG (KCNH2). The experiment in a line: Inhibition of human ERG at 10 uM relative to control.
The nature of series [10]: Passive permeability in human Caco2 cells. Type of series: ADME, cell-based. The following applies: caco-2.
The nature of series [11]: Efflux ratio of permeability in human Caco2 cells. Type of series: ADME, cell-based. The following applies: caco-2. On the technique in general: Caco-2 monolayers are a common model of the intestinal barrier.
A short description of series [12]: Stability in human microsomes. Note: time not given here. Type of series: ADME, Microsome.
The nature of series [13]: Stability in rat microsomes. Note: time not given here. Type of series: ADME, Microsome.
The nature of series [14]: Stability in mouse microsomes. Note: time not given here. Type of series: ADME, Microsome.

Chain of D(2) dopamine receptor (Homo sapiens) (P14416 whole entry): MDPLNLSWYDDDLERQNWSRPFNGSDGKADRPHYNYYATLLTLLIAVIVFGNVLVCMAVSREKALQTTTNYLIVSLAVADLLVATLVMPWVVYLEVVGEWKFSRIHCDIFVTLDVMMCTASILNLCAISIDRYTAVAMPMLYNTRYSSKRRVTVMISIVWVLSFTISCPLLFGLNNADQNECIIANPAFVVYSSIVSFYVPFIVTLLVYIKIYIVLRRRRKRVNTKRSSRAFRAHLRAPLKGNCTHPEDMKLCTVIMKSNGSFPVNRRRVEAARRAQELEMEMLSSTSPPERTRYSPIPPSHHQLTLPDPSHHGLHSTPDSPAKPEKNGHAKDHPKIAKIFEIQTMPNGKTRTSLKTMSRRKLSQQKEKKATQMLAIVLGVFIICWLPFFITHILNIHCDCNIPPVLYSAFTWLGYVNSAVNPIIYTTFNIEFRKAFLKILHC
T1 sequence (Q12809 whole entry): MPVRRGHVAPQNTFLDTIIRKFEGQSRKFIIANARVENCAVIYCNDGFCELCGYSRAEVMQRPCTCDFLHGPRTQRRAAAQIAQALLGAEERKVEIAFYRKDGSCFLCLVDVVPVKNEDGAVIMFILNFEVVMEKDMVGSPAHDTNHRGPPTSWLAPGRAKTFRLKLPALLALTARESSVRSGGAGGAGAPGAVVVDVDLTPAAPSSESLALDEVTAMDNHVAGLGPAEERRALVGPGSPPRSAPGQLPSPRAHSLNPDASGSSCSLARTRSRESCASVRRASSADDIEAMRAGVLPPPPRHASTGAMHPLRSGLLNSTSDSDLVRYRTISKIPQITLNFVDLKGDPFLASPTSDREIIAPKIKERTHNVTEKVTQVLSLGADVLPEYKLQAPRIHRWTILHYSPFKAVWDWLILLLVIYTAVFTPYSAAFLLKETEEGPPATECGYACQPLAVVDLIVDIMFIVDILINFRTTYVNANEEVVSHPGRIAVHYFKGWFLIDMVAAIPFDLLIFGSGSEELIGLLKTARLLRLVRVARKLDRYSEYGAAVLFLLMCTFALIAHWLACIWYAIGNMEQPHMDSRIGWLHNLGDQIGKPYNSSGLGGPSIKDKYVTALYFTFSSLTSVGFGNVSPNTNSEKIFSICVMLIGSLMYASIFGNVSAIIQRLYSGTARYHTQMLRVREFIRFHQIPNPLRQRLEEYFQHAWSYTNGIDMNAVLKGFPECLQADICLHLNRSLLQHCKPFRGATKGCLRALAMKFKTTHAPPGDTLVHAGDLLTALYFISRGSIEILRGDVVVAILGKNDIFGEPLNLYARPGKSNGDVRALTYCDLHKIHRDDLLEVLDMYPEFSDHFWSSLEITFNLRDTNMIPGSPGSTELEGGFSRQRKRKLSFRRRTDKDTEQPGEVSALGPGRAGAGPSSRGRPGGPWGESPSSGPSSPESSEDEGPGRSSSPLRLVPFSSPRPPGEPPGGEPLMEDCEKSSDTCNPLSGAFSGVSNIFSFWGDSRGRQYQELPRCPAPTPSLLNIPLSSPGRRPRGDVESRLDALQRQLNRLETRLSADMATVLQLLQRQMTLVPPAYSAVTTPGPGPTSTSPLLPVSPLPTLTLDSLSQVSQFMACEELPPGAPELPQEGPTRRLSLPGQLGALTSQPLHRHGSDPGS

As a reminder, the inhibition is the relative decrease from the control value, in per cent. By efflux ratio is commonly meant the permeability from basolateral to apical divided by that in the opposite direction, in the common usage. On to `CCCN1CCC(c2ccccc2OC)CC1`, for which the inhibition in [1] is 52%; in series [2], 99%; in series [3], -7%; in [4] it was 14%; in the series filed under Homo sapiens [5], 9%; in the series listed under Homo sapiens [6] it was 12%. Moreover, on hERG (KCNH2) [7], the inhibition at 1 µM came out at 2%. Also, on hERG (KCNH2) [8], the inhibition at 3 µM turned out to be 5.5%. In addition, the inhibition at 10 µM at hERG (KCNH2) [9] stood at 14%. Further, in series [10], the permeability was 100%. In series [11], the efflux ratio is 1. Further, the figures for the Stability in [12], in series [13] and in series [14] were 86%, 4% and 30%, respectively.
As for `CCCN1C[C@H]2OC[C@@H]1C[C@]2(O)c1ccccc1OC`, the inhibition in [1] is 6%; in series [2], 3%; in [3] it was 12%; in series [4], 16%; in the series listed under Homo sapiens [5] it was 6%; in the series filed under Homo sapiens [6], -6%. Besides, the inhibition at 1 µM against hERG (KCNH2) [7] amounted to 4%. For the same compound, the inhibition at 3 µM at hERG (KCNH2) [8] was 5%. In addition, the inhibition at 10 µM against hERG (KCNH2) [9] stood at 14%. Further, the permeability in series [10] came to 100%. Further, the efflux ratio in series [11] amounted to 0.6. The Stability amounted to 100% in [12], 15% in [13] and 55% in [14].
With `CCCN1[C@@H]2COC[C@H]1CN(c1ccccc1OC)C2`, the inhibition in series [1] was 3%; in series [2] it was 19%; in series [3] it was 9%; in series [4], 5%; in the series listed under Homo sapiens [5], 3%; in the series filed under Homo sapiens [6], 3%. Further, at hERG (KCNH2) [7], the inhibition at 1 µM stood at 2%. Also, at hERG (KCNH2) [8], the inhibition at 3 µM amounted to 2%. Moreover, the inhibition at 10 µM at hERG (KCNH2) [9] was 12%. The compound also showed a permeability in [10] of 100%. Also, the efflux ratio in series [11] is 0.9. The Stability in series [12] is given as 70%; in series [13], 4%; in series [14], 18%.
As for `CCCN1C[C@H]2OC[C@@H]1C[C@@H]2c1ccccc1OC`, the inhibition in series [1] was 25%; in [2] it was 16%. On hERG (KCNH2) [7], the inhibition at 1 µM was determined as 0%. The inhibition at 3 µM against hERG (KCNH2) [8] is 3%. Besides, the inhibition at 10 µM against hERG (KCNH2) [9] was found to be 15%. The compound also had a permeability in [10] of 100%. The efflux ratio in series [11] was determined as 0.8. The Stability in series [12] came to 100%; in series [13] it was 3%; in series [14], 4%.
On to `CCCN1C[C@H]2OC[C@@H]1C[C@H]2c1ccccc1OC`, for which the inhibition in series [1] is 4%; in [2], 7%; in series [3] it was -6%; in series [4], 13%; in the series listed under Homo sapiens [5] it was 5%; in the series filed under Homo sapiens [6], 21%. The inhibition at 1 µM at hERG (KCNH2) [7] was found to be 3%. For the same compound, the inhibition at 3 µM at hERG (KCNH2) [8] worked out at 9%. Moreover, the inhibition at 10 µM at hERG (KCNH2) [9] turned out to be 22%. Also, the permeability in series [10] is 100%. Also, the efflux ratio in series [11] came out at 0.8. Moreover, the Stability worked out at 41% in series [12], 3% in [13] and 9% in [14].
On to `CCCN1C[C@H]2OC[C@@H]1C[C@@]2(O)c1ccccc1OC`, for which the inhibition in series [1] amounted to 25%; in series [2], 16%; in [3] it was 4%; in [4], 4%; in the series filed under Homo sapiens [5], 4%; in the series filed under Homo sapiens [6], 15%. The inhibition at 1 µM on hERG (KCNH2) [7] stood at 3%. Besides, at hERG (KCNH2) [8], the inhibition at 3 µM turned out to be 4%. The inhibition at 10 µM against hERG (KCNH2) [9] was 6%. In series [10], this compound registered a permeability of 100%. For the same compound, the efflux ratio in series [11] amounted to 3. Further, the results for the Stability in series [12], in series [13] and in series [14] were 66%, 53% and 18%, respectively.
Turning to `CCCN1CCN(c2ccccc2OC)CC1`, the inhibition is 50% in series [1]; 99% in series [2]; -1% in series [4]; 9% in the series filed under Homo sapiens [5]; 12% in the series listed under Homo sapiens [6]. Besides, the inhibition at 1 µM against hERG (KCNH2) [7] came out at 8%. Besides, the inhibition at 3 µM against hERG (KCNH2) [8] is 16%. Further, the inhibition at 10 µM against hERG (KCNH2) [9] came to 41%. The compound further showed a permeability in series [10] of 100%. Besides, the efflux ratio in [11] is 1.1. The Stability amounted to 63% in series [12], 2% in series [13] and 2% in series [14].
`CCCN1[C@H]2CC[C@H]1CC(c1ccc(OC)c(OC)c1)C2` (relative stereo): the inhibition in series [1] is 6%; in series [2], 20%; in series [3], 8%; in [4] it was 11%; in the series filed under Homo sapiens [5] it was -1%; in the series listed under Homo sapiens [6], 17%. Further, at hERG (KCNH2) [7], the inhibition at 1 µM was 36%. Moreover, the inhibition at 3 µM at hERG (KCNH2) [8] worked out at 62%. On hERG (KCNH2) [9], the inhibition at 10 µM was found to be 85%. Also, in series [10], the permeability is on record as 99%. Further, the efflux ratio in [11] worked out at 3.4. The Stability in [12] stood at 50%; in series [13], 4%; in [14], 21%.
Consider `CCCN1[C@H]2CC[C@H]1CC(O)(c1ccccc1OC)C2` (relative stereo), for which the inhibition in [2] is -8%. Besides, at hERG (KCNH2) [7], the inhibition at 1 µM stood at 7%. Also, on hERG (KCNH2) [8], the inhibition at 3 µM amounted to 19%. Besides, the inhibition at 10 µM against hERG (KCNH2) [9] turned out to be 46%. This compound had a permeability in [10] of 100%. Further, the efflux ratio in [11] came to 1.2. In addition, the results for the Stability in series [12], in [13] and in series [14] were 100%, 12% and 54%, respectively.
For `CCCN1[C@H]2CC[C@H]1CC(c1cc(OC)c(OC)c(OC)c1)C2` (relative stereo), the inhibition was 0% in series [1]; 4% in series [2]; 12% in [3]; 8% in series [4]; -1% in the series listed under Homo sapiens [6]. The inhibition at 1 µM against hERG (KCNH2) [7] stood at 20%. For the same compound, at hERG (KCNH2) [8], the inhibition at 3 µM came out at 40%. Moreover, the inhibition at 10 µM against hERG (KCNH2) [9] was 66%. In [10], this compound registered a permeability of 99%. For the same compound, in [11], the efflux ratio amounted to 5.6. The Stability is given as 100% in series [12], 4% in series [13] and 5% in series [14].
As to `CCCN1[C@H]2CC[C@H]1CC(c1ccccc1OC)C2` (relative stereo; 4), the inhibition in series [1] was 8%; in series [2] it was 0%; in [3], 19%; in series [4], 22%; in the series filed under Homo sapiens [5], 10%; in the series listed under Homo sapiens [6], 11%.
As to `CCCN1[C@H]2CC[C@H]1CC(c1ccccc1OC)C2` (relative stereo; 8a), the inhibition in series [1] is 2%; in series [2], 35%; in series [3], 14%; in [4], 29%; in the series listed under Homo sapiens [5], -3%.
As for `CCCN1[C@H]2COC[C@H]1CC(c1ccccc1OC)C2` (relative stereo; 16), the inhibition in series [1] stood at 4%; in series [2], 11%; in series [3] it was 21%; in series [4], 34%; in the series listed under Homo sapiens [5], 3%; in the series filed under Homo sapiens [6] it was 20%.
Turning to `CCCN1[C@H]2COC[C@H]1CC(c1ccccc1OC)C2` (relative stereo; 20), the inhibition was found to be 22% in series [1]; 30% in [2]; 10% in series [3]; 12% in series [4]; 14% in the series listed under Homo sapiens [5].
